Values of other authors as cited in patent publication US8940742B2, “Heterocyclic compounds and uses thereof” (Infinity Pharmaceuticals, Inc., priority 2012, dated 2015).

Assays:
[1] = PBS pH 7.4, 37° C., 24 hours, 5 μM; cited from earlier work
[2] = tested on: p190 transduced leukemic cells; conditions: about 70 mg/kg twice daily; cited from earlier work
lupus symptoms = conditions: B6.Sle1z.Sle3z model; cited from earlier work
[3] = reference compound, 5 μM; cited from earlier work
NZB/W F1 mice = conditions: NZB/W model, profilactic and therapeutic; cited from earlier work

Compound: O=C(O)CCCc1ccc(N(CCCl)CCCl)cc1 [chlorambucil]
- chemical stability [1]: largely hydrolyzed over the course of 24 hours

Compound: Cc1ccc(NC(=O)c2ccc(CN3CCN(C)CC3)cc2)cc1Nc1nccc(-c2cccnc2)n1 [imatinib]
- leukemogenesis [2]: delay but not cure leukemogenesis

Compound: CO[C@H]1C[C@@H]2CC[C@@H](C)[C@@](O)(O2)C(=O)C(=O)N2CCCC[C@H]2C(=O)O[C@H]([C@H](C)C[C@@H]2CC[C@@H](OCCO)[C@H](OC)C2)CC(=O)[C@H](C)/C=C(\C)[C@@H](O)[C@@H](OC)C(=O)[C@H](C)C[C@H](C)/C=C/C=C/C=C/1C [RAD001, everolimus]
- lupus symptoms (lupus symptoms): ameliorate lupus symptoms

Compound: CC(C)[N+](C)(CCOC(=O)C1c2ccccc2Oc2ccccc21)C(C)C [propantheline]
- plasma stability [3]: intermediate plasma stability

Compound: CC(C)C[C@H](NC(=O)[C@H](Cc1ccccc1)NC(=O)c1cnccn1)B(O)O [Bortezimib]
- blocking disease (NZB/W F1 mice): effective at blocking disease

Compound: CCCOc1cc(N)ccc1C(=O)OCCN(CC)CC [propoxycaine]
- plasma stability [3]: low plasma stability
